The term IC50 denotes the concentration at which inhibition is half-maximal.

This passage reports IC50 and fraction unbound results from US12102633B2, “Spirolactone compounds” (Quixgen, Inc., priority 2017, dated 2024).

Molecules are shown by their SMILES.

In series [1] the test system is Human sebocytes. Description: Lipogenesis of human sebocytes. It counts as cell-based. The conditions noted are these: 96 hours, nile red, read-out: LG-Sebo IC50. The protocol:
Human sebocytes (Celprogen) were grown in collagen-coated 96-well culture microplate (White/Clear bottom, Coming BioCoat) with growth media till 100% confluency. Culture media was changed to growth media plus 100 μM arachidonic acid (Sigma) and 10 μM rosiglitazone (Tocris) with compounds prepared in DMSO (1:1000 dilution in growth media). Cells were treated with compounds for 96 hours with media containing compounds changed after 48 hours. Upon completion of treatment, cells were washed with 200 μL Phosphate Buffered Saline (PBS) and then fixed by adding 100 μL 4% formaldehyde (Sigma) and incubated at room temperature for 1 hour. Cells were then washed 3 times with PBS. Microplate was stained with 100 μL nile red solution prepared in PBS (2 mg/mL, 1:400 dilution) by incubating at 37° C. for 1 hour and then washed 3 times with PBS. The fluorescence was read at Ex 492 nm and Em 595 nm (TECAN SpectrofluorPlus). Effect of compounds on lipogenesis in sebocytes was calculated by % of DMSO vehicle control.

Series [2] concerns Human sebocytes. The series is described as follows: Proliferation of human sebocytes. The conditions noted are these: 24 hours, MTT, read-out: AP-Sebo IC50. It counts as cell-based. The protocol: Human sebocytes (Celprogen) and keratinocytes (ATCC) were grown in 96-well culture microplate (Coming) with growth media to around 50% confluency. Media was changed to growth media mixed with serially diluted compounds in DMSO (1:1000 dilution). After treatment for 24 hours, media was changed to 100 μL phenol red free DMEM and cell numbers were quantitated by using Vybrant® MTT Cell Proliferation Assay Kit (Molecular Probes). Ten μL of 12 mM MTT stock solution was added to each well and the microplate was incubated at 37° C. for 4 hours. Then 100 μL of the SDS-HCl solution was added to each well and mixed thoroughly using a pipette. The microplate was incubated at 37° C. for 4 hours in a cell culture incubator. The microplate was mixed again using a pipette and absorbance was read at 570 nm (Dynex MRX^e Magellan Biosciences). Effect of compounds on proliferation of human keratinocytes was calculated by % of DMSO vehicle control.

Series [3] is described as follows: Plasma protein binding (human). The conditions noted are these: % free, read-out: PPB (h/m) % free, human. It counts as in vitro ADME. The protocol:
(§1) The data in Table 5 were obtained by following the methods disclosed in this application and/or those standard techniques known in the art. ACC enzyme activities were measured according to Biological Examples 1 and 2; Malonyl-CoA in sebocytes were measured according to Biological Example 4; Effect on lipogenesis of 3T3-L1 adipocytes were measured according to Biological Example 7; Effect on lipogenesis of sebocytes were measured according to Biological Example 5; Effect on proliferation of sebocytes were measured according to Biological Example 6; Mouse PK were measured according to Biological Example 10; and Plasma protein binding (human or mouse) were measured by standard technique.

A short description of series [4]: Plasma protein binding (mouse). The format is in vitro ADME. The conditions noted are these: % free, read-out: PPB (h/m) % free, mouse. The protocol: as §1
A further series concerns the target T1, human ACC1 (Homo sapiens, UniProt Q13085).
T1 construct: purchased BPS Bioscience
The series is described as follows: Human ACC enzymatic activity assay (ACC1). The format is biochemical. Particulars: purified human ACC1; read-out: EA-CoA hACC 1 IC50. The essentials:
(§2)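 Purified human ACC1 (0.4 μg/mL) or ACC2 (0.48 μg/mL) was preincubated with compound 10 min at 37° C in HEPES pH 7.5 with 4.0 mM ATP and 15 mM ^13C-NaHCO3. The reaction was started with 5 μM acetyl-CoA, run 1-2 h at 37° C and stopped with TCA. Labelled malonyl-CoA was quantified by LC-MS/MS.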

The next series concerns the target T2, human ACC2 (Homo sapiens, UniProt O00763).
T2 construct: purchased BPS Bioscience
The series is described as follows: Human ACC enzymatic activity assay (ACC2). It counts as biochemical. The conditions noted are these: purified human ACC2; read-out: EA-CoA hACC 2 IC50. The essentials: as §2

The subject of series [5] is Human sebocytes. Description: Cellular levels of malonyl-CoA in human sebocytes. The conditions noted are these: 0.5 h, 30 min incubation, read-out: Malonyl-CoA in Sebo IC50. The format is cell-based. The protocol:
Shimadzu LC system was used for sample analysis consisting of system controller (Shimadzu CBM-20A), autosampler (Shimadzu SIL-20A), pump A and B (Shimadzu LC-20AD), column oven (Shimadzu CTO-20A), and analytical column (Phenomenex Gemini 5u C18 11A, 100×2 mm). LC was running at 200 μL/min in the binary gradient mode with mobile phase A (5 mM Ammonium Acetate and 5 mM DMBA in water (1,3-Dimethylbutylamine)) and B (methanol). The samples were analyzed on an AB Sciex QTrap4000 LC-MS/MS triple quadrupole mass spectrometer (Applied Biosystems). Malonyl-CoA and malonyl-13C-CoA were monitored in positive ion mode following MRM transitions at 854.2/347.1 and 855.1/246.1, respectively. The product and internal standard were coeluted to the mass spectrometer in 3 s with 50% H2O, 25% MeCN, 25% acetone, and 5 mM ammonium acetate. Ion chromatograms were integrated using the Analyst 1.5.2 software. Peak area ratios were compared against a standard curve and final cellular concentration of malonyl-CoA or production rate of malonyl-13C-CoA was calculated as pmoles/mg protein per minute.
Human sebocytes (Celprogen) were grown in growth media (DMEM with 4.5 g/L glucose, 0.584 g/L L-glutamine (Sigma), 100 units/mL of penicillin and 100 μg/mL of streptomycin (Gibco), 10% fetal bovine serum (Gibco)) at 37° C. in a humidified water jacketed incubator (Forma Scientific) supplemented with 5% CO2 till 100% confluency. Cells grown in 152 cm^2 cell culture dish (Corning) were trypsinized with 0.25% trypsin-EDTA (Gibco), centrifuged at 800 rpm for 10 min (Eppendorf) and resuspended in 4 mL growth media. To 1 μL serial diluted compounds in DMSO, 99 μL cells (around 0.5 million cells suspended in growth media) were added and mixed well followed by incubation in cell culture incubator for 30 min. Cells were then centrifuged at 800 rpm for 10 min and 70 μL 10% trichloroacetic acid was added to each well to lyse the cells and precipitate proteins. Cellular levels of malonyl-CoA were quantitated by LC-MS/MS.

T2 sequence (O00763 whole entry): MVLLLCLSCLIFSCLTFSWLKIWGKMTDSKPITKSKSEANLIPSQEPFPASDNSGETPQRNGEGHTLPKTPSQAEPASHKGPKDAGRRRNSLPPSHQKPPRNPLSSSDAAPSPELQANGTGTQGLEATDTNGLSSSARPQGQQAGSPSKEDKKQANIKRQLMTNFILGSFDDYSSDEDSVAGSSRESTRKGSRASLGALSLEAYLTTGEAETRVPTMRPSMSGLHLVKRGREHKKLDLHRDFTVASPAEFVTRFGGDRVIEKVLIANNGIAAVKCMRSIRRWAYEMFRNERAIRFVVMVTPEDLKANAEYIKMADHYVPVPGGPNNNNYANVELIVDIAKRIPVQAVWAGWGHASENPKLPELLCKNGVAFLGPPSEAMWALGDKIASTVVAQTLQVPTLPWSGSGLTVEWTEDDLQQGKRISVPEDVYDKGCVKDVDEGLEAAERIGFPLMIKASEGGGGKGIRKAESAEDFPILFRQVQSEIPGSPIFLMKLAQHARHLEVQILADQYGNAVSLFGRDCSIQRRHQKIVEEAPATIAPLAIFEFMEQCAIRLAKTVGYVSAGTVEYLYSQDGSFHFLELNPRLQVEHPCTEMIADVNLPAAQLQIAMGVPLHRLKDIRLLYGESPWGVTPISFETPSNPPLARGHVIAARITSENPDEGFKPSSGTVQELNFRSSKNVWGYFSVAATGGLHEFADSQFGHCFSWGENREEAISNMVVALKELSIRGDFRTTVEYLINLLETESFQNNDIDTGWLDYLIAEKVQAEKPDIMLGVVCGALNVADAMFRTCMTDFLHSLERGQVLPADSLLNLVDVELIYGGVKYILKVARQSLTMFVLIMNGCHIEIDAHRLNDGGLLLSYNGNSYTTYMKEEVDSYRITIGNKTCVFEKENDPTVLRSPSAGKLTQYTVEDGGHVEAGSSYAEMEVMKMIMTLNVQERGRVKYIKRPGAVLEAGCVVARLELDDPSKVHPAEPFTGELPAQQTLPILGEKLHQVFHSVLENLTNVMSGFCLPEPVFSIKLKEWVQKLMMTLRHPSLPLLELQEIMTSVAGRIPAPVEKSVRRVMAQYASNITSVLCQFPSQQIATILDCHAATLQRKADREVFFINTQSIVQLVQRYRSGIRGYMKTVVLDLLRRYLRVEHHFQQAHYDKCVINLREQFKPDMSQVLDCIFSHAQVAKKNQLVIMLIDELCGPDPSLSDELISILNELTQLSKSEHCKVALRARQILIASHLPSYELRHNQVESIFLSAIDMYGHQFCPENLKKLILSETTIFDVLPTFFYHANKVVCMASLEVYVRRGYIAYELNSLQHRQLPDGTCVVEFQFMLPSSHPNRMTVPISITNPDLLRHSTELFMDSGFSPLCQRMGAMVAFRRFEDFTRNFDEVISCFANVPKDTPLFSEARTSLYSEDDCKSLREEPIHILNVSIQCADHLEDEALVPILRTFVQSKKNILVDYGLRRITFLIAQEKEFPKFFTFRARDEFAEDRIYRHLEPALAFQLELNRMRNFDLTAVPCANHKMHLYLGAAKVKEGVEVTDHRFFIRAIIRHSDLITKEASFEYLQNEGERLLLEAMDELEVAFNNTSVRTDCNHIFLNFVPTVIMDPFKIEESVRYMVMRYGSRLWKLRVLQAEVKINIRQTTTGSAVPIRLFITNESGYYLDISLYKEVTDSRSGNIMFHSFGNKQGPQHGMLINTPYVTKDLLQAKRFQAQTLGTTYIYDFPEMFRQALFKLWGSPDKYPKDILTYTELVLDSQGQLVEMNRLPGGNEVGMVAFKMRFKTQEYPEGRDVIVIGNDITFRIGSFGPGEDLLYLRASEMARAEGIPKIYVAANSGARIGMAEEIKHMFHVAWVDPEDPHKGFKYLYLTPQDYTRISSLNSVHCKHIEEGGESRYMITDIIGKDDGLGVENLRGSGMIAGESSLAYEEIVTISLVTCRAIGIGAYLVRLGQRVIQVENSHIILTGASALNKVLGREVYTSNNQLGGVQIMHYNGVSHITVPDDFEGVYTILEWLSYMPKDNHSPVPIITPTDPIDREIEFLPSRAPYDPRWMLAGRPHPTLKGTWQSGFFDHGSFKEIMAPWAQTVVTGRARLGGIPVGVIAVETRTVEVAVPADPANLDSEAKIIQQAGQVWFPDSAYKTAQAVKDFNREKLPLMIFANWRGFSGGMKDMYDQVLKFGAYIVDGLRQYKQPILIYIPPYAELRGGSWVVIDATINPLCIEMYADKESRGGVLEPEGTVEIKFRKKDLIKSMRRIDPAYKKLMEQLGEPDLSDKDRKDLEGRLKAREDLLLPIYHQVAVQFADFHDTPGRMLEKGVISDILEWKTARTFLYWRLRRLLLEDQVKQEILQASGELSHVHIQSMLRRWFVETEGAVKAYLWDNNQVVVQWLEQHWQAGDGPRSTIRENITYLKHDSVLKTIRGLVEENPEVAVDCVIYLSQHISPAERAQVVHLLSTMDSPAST

On to `COc1cc(C(=O)N2CCC3(CC2)Cc2ccc(C(C)C)cc2C(=O)O3)nc2c(OC)cccc12` [Example 2, 1′-(4,8-dimethoxyquinoline-2-carbonyl)-7-isopropylspiro[isochroman-3,4′-piperidin]-1-one], for which the IC50 in the series with Human sebocytes [1] is 25 nM; in the series with Human sebocytes [2], 57.1 nM. Besides, the fraction unbound in series [3] came out at 0.0037; in series [4] it was 0.0028.

On to `COc1cc(C(=O)N2CCC3(CC2)Cc2ccc(Nc4ccnn4C)cc2C(=O)O3)nc2c(OC)cccc12` [Example 6, 1′-(4,8-dimethoxyquinoline-2-carbonyl)-7-((1-methyl-1H-pyrazol-5-yl)amino)spiro[isochroman-3,4′-piperidin]-1-one], for which the IC50 on human ACC1 was determined as 36.2 nM; on human ACC2, 31.2 nM; with Human sebocytes [5] it was 47.4 nM; in the series with Human sebocytes [2] it was 2.5 nM. The results for the fraction unbound in series [3] and in series [4] were 0.0036 and 0.0073, respectively.
